US11609238B2, “Method for detecting a radical compound derived from a lipid and a compound derived from the radical compound” (FUSO PHARMACEUTICAL INDUSTRIES, LTD., priority 2017, dated 2023)

Columns and labels:
[1] = Reactivity of NBD-nitroxide with lipid radicals by fluorometry; details: for fluorescence intensity on reaction with lipid radical: lipid radical produced using lipoxygenase (LOX) for LA, ALA or AA, FIG. 3
Protocol: (§1) In order to investigate reaction selectivities of the above three types of NBD-nitroxide (NBD-Me, NBD-Et and NBD-Pen), reactivities with various ROS and lipid radical were evaluated by fluorometry. […] In addition, in the reaction with these compounds, no significant difference in fluorescence intensity was observed between these nitroxides, and there was no difference between the 2nd and 6th position substituents.

[2] = tested on: human umbilical vein endothelial cell (HUVEC); experiment: Cytotoxicity of NBD-nitroxide, viable cell count; type: cell-based; details: viable cells after incubation for 24 hours
Protocol: Cytotoxicity of NBD-nitroxide was evaluated using human umbilical vein endothelial cell (HUVEC). When each concentration of the compound was added to HUVEC and the number of viable cells after incubation for 24 hours was counted, cytotoxicity was not observed up to 10 μM in any NBD-nitroxide.

[3] = Reactivity of NBD-nitroxide with reactive oxygen species by fluorometry; details: hydrogen peroxide, hypochlorous acid
Protocol: as §1

[4] = Scavenging of lipid radicals in hepatocellular carcinoma model mouse, LC/FL/MS of liver lipid extract; type: in vivo, mice (C57BL/6J)
Protocol: It is appropriately selected according to the present invention, but not limited to, HPLC analysis is performed in this Example by injecting 10 μL of a sample solution into an InertSusteain® C18 analytical column (filled with ES silica having a particle size of 3 μm, 2.0×150 mm) manufactured by Mitsubishi Chemical Corporation, which is eluted with a mobile phase (A: 5.0 mM ammonium acetate in H2O, B:ACN:H2O (95:5)) at 40° C. at a rate of 0.4 ml/min. The time program of mobile phase elution was set to B %: 0 to 22 min; 60%, 22 to 60 min; 80%, 60 to 70 min; 100%.
For each fraction eluted, fluorescence observation from NBD-Pen was performed at excitation wavelength (470 nm) and emission wavelength (530 nm) with a fluorescence detector (RF-20A xs manufactured by Shimadzu Corporation).
Next, each fraction thus obtained was introduced into an ion detector (Q Exactive™ Hibrid Quadrupole-Orbitrap™ MS manufactured by Thermo Fisher Scientific Co., Ltd.) by electrospray ionization (ESI) and subjected to mass spectrometry.
Male mice (C57BL/6J) at 8 weeks of age were divided into two groups. As a control, physiological saline (PBS) was administered to mice in Group 1 by intraperitoneal injection. DEN at 100 mg/kg was administered to mice in Group 2 by intraperitoneal injection.
Four hours after DEN administration, a 500 μM NBD-Pen solution was administered at 4 ml/kg to mice in Groups 1 and 2 by intraperitoneal injection.
Fifteen minutes after administration of NBD-Pen, livers were excised from the mice in the respective groups and lipid extraction was performed. LC/FL/MS analysis was performed on extracts under the same conditions as in Example 1. The structure of the radical adduct was analyzed by comparing the fluorescence peak observed at the LC/FL site with the precise mass analysis result at that column retention time. The results are described in Table 2 and FIG. 11.

[5] = tested on: hepatocellular carcinoma; experiment: Hepatocellular carcinogenesis three months after DEN administration, number of tumor foci; type: in vivo, rats (F344); details: rats three months after DEN 100 mg/kg i.p.; 500 μM solution at 4 ml/kg 1 h after DEN; FIG. 6
Protocol: (§2) Six week-old male rats (F344) were divided into 4 groups, and as a control, rats in Group 1 were administered with saline (PBS) by intraperitoneal injection. Rats in Groups 2-4 were administered with DEN at 100 mg/kg by intraperitoneal injection.
(§3) One hour after DEN administration, physiological saline was administered to rats in Group 2 by intraperitoneal injection, rats in Group 3 were administered with a 500 μM OH-Pen solution at 4 ml/kg, and rats in Group 4 were administered with a 500 μM OH-Pen-NOMe solution at 4 ml/kg.
Three months after DEN administration, rats in the respective groups were subjected to mixed anesthesia of 3 species, and they were sacrificed and livers were taken out promptly. Photographs of the livers taken from the rats of the respective groups are shown in FIG. 6, and the result of counting the number of tumor foci is shown in FIG. 6b.

[6] = tested on: MDA, ALT (GPT), IL-6 in liver extracts of DEN-administered rats; experiment: Liver lipid peroxidation, hepatic injury and inflammatory markers after DEN administration; type: in vivo, rats (F344); details: rat liver extract 24 h after DEN 100 mg/kg i.p.; 500 μM solution at 4 ml/kg 1 h after DEN; vs DEN group; FIG. 5
Protocol: as §2, §3
Twenty-four hours after DEN administration, livers were excised from rats in the respective groups and lipid extraction was carried out. For extracts, amounts of malondialdehyde; MDA as a peroxidized lipid marker, alanine transaminase (glutamate pyruvate transferase; ALT (GPT)) as a hepatic injury marker, and interleukin-6; IL-6 as an inflammatory marker were measured.

[7] = superoxide anion radical, hydroxy radical or nitric oxide, FIG. 3
[8] = Gr. 1, no DEN (PBS), mouse liver 15 min after 500 μM NBD-Pen 4 ml/kg i.p.
[9] = Gr. 2, DEN 100 mg/kg i.p., NBD-Pen 500 μM 4 ml/kg i.p. 4 h after DEN, liver 15 min later

| Molecule | fluorescence intensity on reaction with lipid radical [1] | fluorescence on reaction with reactive oxygen species [3, 7] | hepatocellular carcinogenesis (number of tumor foci) [5] | alanine transaminase ALT (GPT), hepatic injury marker [6] | interleukin-6 (IL-6), inflammatory marker [6] | malondialdehyde (MDA), peroxidized lipid marker [6] | further results |
| --- | --- | --- | --- | --- | --- | --- | --- |
| 2,2,6-trimethyl-4-(4-nitrobenzo[1,2,5]oxadiazol-7-ylamino)-6-pentylpiperadine-1-oxyl [NBD-Pen] | significantly elevated | fluorescence did not increase much |  |  |  |  | reactivity with the lipid radicals and thermal stability of nitroxide-lipid complex, comparison among Compounds A to C [1]: predominant; fluorescence intensity on reaction with lipid radicals ([1]; LA, ALA, AA activated with LOX, AAPH or MeO-AMVN, FIG. 4): remarkably increased; concentration up to which cytotoxicity was not observed [2]: > 10 µM; fluorescence on reaction with reactive oxygen species ([3]; superoxide anion radical or hydroxy radical, FIG. 4): fluorescence did not increase much; Fluorescent intensity of NBD-Pen-R (a.u.) R [4, 8]: 29.72 a.u.; Fluorescent intensity of NBD-Pen-R (a.u.) R C2H5 [4, 8]: 72.95 a.u.; Fluorescent intensity of NBD-Pen-R (a.u.) R C3H7 [4, 8]: 143.69 a.u.; Fluorescent intensity of NBD-Pen-R (a.u.) R C5H11 [4, 8]: 393.38 a.u.; Fluorescent intensity of NBD-Pen-R (a.u.) R [4, 9]: 353.94 a.u.; Fluorescent intensity of NBD-Pen-R (a.u.) R C2H5 [4, 9]: 704.15 a.u.; Fluorescent intensity of NBD-Pen-R (a.u.) R C3H7 [4, 9]: 1604.07 a.u.; Fluorescent intensity of NBD-Pen-R (a.u.) R C5H11 [4, 9]: 3511.72 a.u. |
| CCC1(CC)CC(Nc2ccc([N+](=O)[O-])c3nonc23)CC(CC)(CC)N1[O] [NBD-Et] | significantly elevated | fluorescence did not increase much |  |  |  |  |  |
| CC1(C)CC(Nc2ccc([N+](=O)[O-])c3nonc23)CC(C)(C)N1[O] [NBD-Me] | significantly elevated | fluorescence did not increase much |  |  |  |  |  |
| CCCCCC1(C)CC(O)CC(C)(C)N1[O] (centres unmarked) [OH-Pen, 4-hydroxy-2,2,6-trimethyl-6-pentylpiperidine-1-oxyl] |  |  | suppressed hepatocellular carcinogenesis | significantly decreased | significantly decreased | significantly decreased |  |
| CCCCCC1(C)CC(O)CC(C)(C)N1OC (centres unmarked) [OH-Pen-NOMe, 4-hydroxy-1-methoxy-2,2,6-trimethyl-6-pentylpiperidine-1-oxyl] |  |  | not suppressed at all | almost no drop | almost no drop | almost no drop |  |
